Several values for one entry are separate records, joined by “and”; a condition that tells them apart may be missing. Equal entries are not always repeated. Where two headings read alike, the source gives them in different places.
Key:
Type in all cases: biochemical
HγS_N143D = target: T1, HγS_N143D (Homo sapiens, UniProt P22914, N144D); assay: Thermal aggregation (72 °C, 20 min) turbidity assay, HγS_N143D; conditions: 20 min, read-out: % Suppression; for inhibition: HγS_N143D, 75 μM protein, 72 °C 20 min
T1 sequence (P22914 1-178 N144D): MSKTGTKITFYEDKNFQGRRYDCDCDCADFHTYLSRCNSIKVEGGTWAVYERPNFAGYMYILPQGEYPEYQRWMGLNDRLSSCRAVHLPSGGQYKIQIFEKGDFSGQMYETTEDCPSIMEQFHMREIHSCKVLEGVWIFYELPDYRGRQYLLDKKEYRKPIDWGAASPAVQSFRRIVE
Text: (§1) For a review, see the study by Roskamp et al. ([38]). […] For the mechanistic studies below these two compounds together with either drug M, chosen mostly as negative control, or the entire set of six compounds were used for comparison purpose, whereby the words “drug” or “compound” are used interchangeably in the studies later.

HγD = target: T2, HγD (Homo sapiens, UniProt P07320); assay: Thermal aggregation (72 °C) turbidity assay, recombinant HγD; conditions: for inhibition at 125 µM / Effect on HγD at 2.0 mg/ml and 20 min: 20 min; for inhibition at 125 µM: 75 μM protein, 125 μM or less inhibitor (1.7:1); for Effect on HγD aggregation at low protein / Effect on HγD at 2.0 mg/ml and 20 min: 72 °C
T2 construct: made in house; host or cells: E. coli BL21(DE3) pLysS, pET3d vector
T2 sequence (P07320 1-174): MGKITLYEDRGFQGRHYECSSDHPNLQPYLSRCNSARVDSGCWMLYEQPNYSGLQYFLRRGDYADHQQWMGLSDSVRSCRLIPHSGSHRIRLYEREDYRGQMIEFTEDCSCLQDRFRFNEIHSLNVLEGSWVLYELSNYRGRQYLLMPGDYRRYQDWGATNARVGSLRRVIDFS
Experimental: For refinement of the aforementioned screen, these compounds were tested at concentrations varying from 50 to 500 μM and 1.5 mg/ml concentration of recombinant HγD, human gamma S (HγS), its deamidation mutants γS_N14, γS_N76, γS_N143 and its triple mutant γSTM (Fig. 1F). In addition, other drugs and compounds that tested positive in the initial screen were also included, such as escin (E), hematein (I), citric acid (CA), docusate sodium (DS), and sennoside A (S) (Fig. S1B). […] For a review, see the study by Roskamp et al. ([38]). […] Thus, drug C and drug G emerged as the strongest antidenaturation/aggregation and potential anticataract drugs. For the mechanistic studies below these two compounds together with either drug M, chosen mostly as negative control, or the entire set of six compounds were used for comparison purpose, whereby the words “drug” or “compound” are used interchangeably in the studies later.
For end-point assays, HγD and MγS (1 mg/ml, 100 μl) in 50 mM K3PO4 buffer (pH 7.2) in set of triplicates in transparent flat bottom 96-well plates were heated at 72 °C for 20 min in the presence and absence of selected drugs at varying concentrations. Absorbance was measured at 600 nm with a SpectraMax iD5 (Molecular Devices).
HγD protein (2.5 mg/ml buffer A) was incubated at 72 °C for 20 min without or with 100 or 400 μM drug G or C in buffer A. Final DMSO concentration was 5% in all samples. […] Therefore, samples with and without 400 μM drug G were chosen for identification of drug G-induced miscleavage sites upon digestion with 25:1 protein:trypsin ratio (sequencing grade modified trypsin; Promega) in buffer A. After 4 h, samples were frozen at −80 °C until processed for determination of miscleavage sites using proteomics analysis. LC–MS/MS analysis was performed on an Orbitrap Eclipse mass spectrometer (Thermo Fisher Scientific) coupled with a Waters nanoAcquity UPLC system (Waters) in total 90 min run using a linear gradient range from 0 to 42% solvent B (0.1% formic acid in acetonitrile) versus solvent A (0.1% formic acid in water) at a flow rate of 300 nl/min. MS1 full mass spectra were acquired in the Orbitrap mass analyzer at the resolution of 120 K. MS/MS tandem mass spectra were generated in the ion trap mass analyzer by collision-induced dissociation of peptide ions at a normalized collision energy of 35%. The resulting MS/MS spectra were searched against human gamma D protein database using Mass Matrix software (MassMatrix, Inc) with the mass errors of 10 ppm and 0.8 Da for MS1 and MS/MS scans, respectively. The oxidation of methionine was set for variable modifications, and three miscleavages were allowed for the search.
(§2) Final DMSO concentration was 5% including in control samples. Microtiter plates were first incubated for 10 min at 72 °C and reincubated for 10 more min. Absorbance was measured at both 10 and 20 min total incubation time.

[1] = tested on: γ-crystallins (bovine, HγD and HγS crystallins); assay: Mean aggregation suppression across all γ-crystallins tested; design: concentration or dose not given beside the values; conditions: mean of all experiments in Table 2 (n=9)
Text: as §1
Table S 4: List of primers used for making WT -HγD mutants

Bovine γ-crystallins = assay: Thermal aggregation (72 °C) turbidity assay, bovine γ-crystallins (pool 4); conditions: for Thermal denaturation inhibitory activity in subscreen: 150 μM; for Thermal denaturation inhibitory activity in subscreen / % Suppression: 72 °C 20 min; for % Suppression: 75 μM protein, 125 μM or less inhibitor (1.7:1); for Effect on BGC aggregation at lower protein concentrations / Effect on absorbance of BGC at 2.0 mg/ml: 400 μM drug, 72 °C, 10 and 20 min
Experimental: Candidate compounds were rescreened using thermal denaturation upon heating at 72 °C for 20 min according to Chen et al. ([36]) in order to select for compounds with chaperone rather than antioxidant activity since a large number of the latter already exist in the cataract field ([37]).
as §1
All assays were carried out manually in CORNING #9017 Costar Assay 96-well plates. Wells were filled with 90 μl calf γ-crystallin-rich protein solution (pool 4 at 2 mg/ml) followed by 0.5 to 5.0 μl of drug (all 10 mM stock solution in DMSO) as supplied by the manufacturer and 10 μl H2O2 (450 mM stock solution in water) and sealed with sticky Applied Biosystems MicroAmp Clear Adhesive films (Life Technologies). Control wells received DMSO only. Plates were shaken for 2 min and incubated from 24 to 72 h in a culture room at 37 °C. […] A second reading was performed following a heat shock of 20 min at 72 °C as described by Chen et al. ([36]) in order to capture drugs with heat-resistant chaperone activity. In order to quantitate the impact of the drugs on aggregation, a fitness plot was created (Fig. 1 C) that allowed us to identify wells with enhanced/worsening versus suppressed crystallin aggregation. In addition, aggregation in each well was also visually assessed by two independent “blinded” readers for the ability to read fine print through each well by placing the plates over small font text (Fig. 1D). Both machine and visual readouts were reconciled in order to increase robustness.
as §2

[2] = HγD experiment 1, 72 °C 20 min, read-out: % Suppression
[3] = HγD experiment 2, 72 °C 20 min, read-out: % Suppression
[4] = Bovine γ-crystallins experiment 1
[5] = Bovine γ-crystallins experiment 2
[6] = read-out: % Suppression, HγD experiment 1, 72 °C 20 min
[7] = read-out: % Suppression, HγD experiment 2, 72 °C 20 min

Row | SMILES | inhibition (HγS_N143D) [%] | inhibition at 125 µM (HγD; [2]) [%] | inhibition at 125 µM (HγD; [3]) [%] | Mean % suppression / inhibition of γ-crystallin aggregation against thermal denaturation [1] | Thermal denaturation inhibitory activity in subscreen (Bovine γ-crystallins) | % Suppression (Bovine γ-crystallins; [4]) [%] | % Suppression (Bovine γ-crystallins; [5]) [%] | inhibition at 125 µM (HγS_N143D) [%] | Effect on HγD aggregation at low protein (HγD; 400 μM drug) | Effect on HγD at 2.0 mg/ml and 20 min (HγD; 400 μM drug) | inhibition at 125 µM (HγD; [6]) [%] | inhibition at 125 µM (HγD; [7]) [%] | Turbidity suppression (HγD; HγD 2.5 mg/ml, 400 μM drug, 72 °C 20 min, 5% DMSO) | Effect on BGC aggregation at lower protein concentrations (Bovine γ-crystallins) | Effect on absorbance of BGC at 2.0 mg/ml (Bovine γ-crystallins)
1 | O=C(O)CCCCCCCCCCCC[C@@H]1C=CCC1 [drug M, Chaulmoogric acid] | 25 | 38 | 73 | 42% and 42.2% | thermal denaturation inhibitory activity | 40 | 16 | – | – | – | – | – | – | – | –
2 | CC(C)=CCC[C@]1(C)C=Cc2c(O)c3c(c(CC=C(C)C)c2O1)O[C@]12C(=C[C@@H]4C[C@H]1C(C)(C)O[C@@]2(C/C=C(/C)C(=O)O)C4=O)C3=O [drug G, Gambogic acid] | – | – | – | 64% and 64.2% | thermal denaturation inhibitory activity | 48 | 75 | 48 | worsened HγD aggregation | no baseline change | 69 | 75 | markedly suppressed turbidity | stimulated aggregation | reproducibly suppressed absorbance
3 | Oc1c(Cl)cc(Cl)c(Cl)c1Cc1c(O)c(Cl)cc(Cl)c1Cl [drug X, Hexachlorophene] | – | 61 | 47 | 56% and 55.8% | thermal denaturation inhibitory activity | 30 | 55 | 50 | – | – | – | – | – | – | –
4 | COC(=O)/C=C/C(C)=C\C=C\C(C)=C\C=C\C=C(C)\C=C\C=C(C)\C=C\C(=O)O [drug B, Bixin] | 25 | 63 | 60 | 49% and 48.8% | thermal denaturation inhibitory activity | 23 | 54 | – | – | – | – | – | – | – | –
5 | Cc1cc(C(C#N)c2ccc(Cl)cc2)c(Cl)cc1NC(=O)c1cc(I)cc(I)c1O (stereo not drawn) [drug C, Closantel] | – | – | – | 69% and 68.6% | thermal denaturation inhibitory activity | 60 | 73 | 52 | worsened HγD aggregation | no baseline change | 65 | 73 | – | stimulated aggregation | reproducibly suppressed absorbance
6 | CC(C)=CCCC1(C)C=Cc2c(O)c3c(c(CC=C(C)C)c2O1)OC12C(=CC4CC1C(C)(C)OC2(C/C=C(/C)C(=O)O)C4O)C3=O (stereo not drawn) [drug D, dihydrogambogic acid] | – | – | – | 54% | thermal denaturation inhibitory activity | 40 | 44 | 30 | – | – | 66 | 78 | – | – | –
